Tests used:
Test in all cases: Antibacterial screen at 200 μg/mL (cell density vs control)
Format in all cases: cell-based
Settings in all cases: peptide 200 μg/mL, CAMHB, 5 × 10^5 CFU/mL, 37°C, 12 h, OD600; control (no AMP) = 1; three biological replicates
[1] = system: Escherichia coli ATCC 11775
Procedure: (§1) Eight bacterial strains were utilized in the antibacterial experiment. S. aureus ATCC 12600, B. subtilis ATCC 23857, E. coli ATCC 11775, and A. baumannii ATCC 19606 were purchased from Shanghai Beinuo Biology. M. luteus ATCC 4698 and S. bongori ATCC43975 were purchased from Shanghai Beisi Biotechnology. V. owensii ems001 and V. alginolyticus xv22 from the intestines of diseased shrimps were isolated in our laboratory. All strains were cultured in the cation‐adjusted Mueller‐Hinton broth (CAMHB) at 37°C to the logarithmic growth phase (OD600 = 0.5). Then, bacteria were gradient‐diluted using fresh CAMHB to a bacterial density of 5 × 10^5 CFU/mL. Antibacterial experiments were performed in a 96‐well plate with 200 μg/mL final peptide concentration. Four experimental groups were set up, including a blank control (200 μL CAMHB), a negative control (180 μL CAMHB plus 20 μL peptide), a positive control (180 μL bacterial culture plus 20 μL ultrapure water), and an experimental group (180 μL bacterial culture plus 20 μL peptide). Three biological replicates were conducted for each group, and OD600 values were measured after incubation at 37°C for 12 h. Every observed value was removed from the blank control group value. The value of the experimental group was then subtracted from the value of the negative control group therefore eradicating the effect of the peptide on the OD measurement. Student's t‐test allowed the estimation of a notable variation between the experimental and positive groups using a p‐value of 0.05 as the limit. […] The MIC of a peptide against a bacterium was determined as the minimum peptide concentration at which there was no visible bacterial growth.

[2] = system: Micrococcus luteus ATCC 4698
Procedure: as §1

[3] = system: Staphylococcus aureus ATCC 12600
Procedure: as §1

[4] = system: Acinetobacter baumannii ATCC 19606
Procedure: as §1

[5] = system: Salmonella bongori ATCC 43975
Procedure: as §1

[6] = system: Vibrio owensii ems001
Procedure: as §1

[7] = system: Bacillus subtilis ATCC 23857
Procedure: as §1

[8] = system: Vibrio alginolyticus xv22
Procedure: as §1

Sequence: MRQGMCRIGGRL [Cand-55, chemically synthesized candidate AMP predicted from marine biofilm bacteria]
- cell density relative to control, E. coli ATCC 11775 [1]: 0.915
- cell density relative to control, M. luteus ATCC 4698 [2]: 1
- cell density relative to control, S. aureus ATCC 12600 [3]: 0.793
- cell density relative to control, A. baumannii ATCC 19606 [4]: 0.845
- cell density relative to control, S. bongori ATCC 43975 [5]: 1
- cell density relative to control, V. owensii ems001 [6]: 1
- cell density relative to control, B. subtilis ATCC 23857 [7]: 0.908
- cell density relative to control, V. alginolyticus xv22 [8]: 0

Sequence: MLKLSWNLCRPIGRRW [Cand-186, chemically synthesized candidate AMP predicted from marine biofilm bacteria]
- cell density relative to control, E. coli ATCC 11775 [1]: 0.036
- cell density relative to control, M. luteus ATCC 4698 [2]: 0.164
- cell density relative to control, S. aureus ATCC 12600 [3]: 0.112
- cell density relative to control, A. baumannii ATCC 19606 [4]: 0.276
- cell density relative to control, S. bongori ATCC 43975 [5]: 0.245
- cell density relative to control, V. owensii ems001 [6]: 0.091
- cell density relative to control, B. subtilis ATCC 23857 [7]: 0
- cell density relative to control, V. alginolyticus xv22 [8]: 0.192

Sequence: MWWSKSIHQASFTRYRSYCRGCCTFSIRSCRYKRRII [Cand-180, chemically synthesized candidate AMP predicted from marine biofilm bacteria]
- cell density relative to control, E. coli ATCC 11775 [1]: 0
- cell density relative to control, M. luteus ATCC 4698 [2]: 0
- cell density relative to control, S. aureus ATCC 12600 [3]: 0.107
- cell density relative to control, A. baumannii ATCC 19606 [4]: 0
- cell density relative to control, S. bongori ATCC 43975 [5]: 0.025
- cell density relative to control, V. owensii ems001 [6]: 0
- cell density relative to control, B. subtilis ATCC 23857 [7]: 0
- cell density relative to control, V. alginolyticus xv22 [8]: 0

Sequence: MCTSKKKVWRCVAPS [Cand-33, chemically synthesized candidate AMP predicted from marine biofilm bacteria]
- cell density relative to control, E. coli ATCC 11775 [1]: 0.96
- cell density relative to control, M. luteus ATCC 4698 [2]: 1
- cell density relative to control, S. aureus ATCC 12600 [3]: 0.874
- cell density relative to control, A. baumannii ATCC 19606 [4]: 0.813
- cell density relative to control, S. bongori ATCC 43975 [5]: 1
- cell density relative to control, V. owensii ems001 [6]: 1
- cell density relative to control, B. subtilis ATCC 23857 [7]: 0.601
- cell density relative to control, V. alginolyticus xv22 [8]: 0.879

Sequence: MLTTIAKSTKKCKPKSCCACSLYRC [Cand-216, chemically synthesized candidate AMP predicted from marine biofilm bacteria]
- cell density relative to control, E. coli ATCC 11775 [1]: 0.832
- cell density relative to control, M. luteus ATCC 4698 [2]: 0.978
- cell density relative to control, S. aureus ATCC 12600 [3]: 0.86
- cell density relative to control, A. baumannii ATCC 19606 [4]: 1
- cell density relative to control, S. bongori ATCC 43975 [5]: 0.556
- cell density relative to control, V. owensii ems001 [6]: 0.018
- cell density relative to control, B. subtilis ATCC 23857 [7]: 0.845
- cell density relative to control, V. alginolyticus xv22 [8]: 0

Sequence: MICWCAKICCSCSAFRRWWKRNGTAC [Cand-57, chemically synthesized candidate AMP predicted from marine biofilm bacteria]
- cell density relative to control, E. coli ATCC 11775 [1]: 0.456
- cell density relative to control, M. luteus ATCC 4698 [2]: 1
- cell density relative to control, S. aureus ATCC 12600 [3]: 0
- cell density relative to control, A. baumannii ATCC 19606 [4]: 0.653
- cell density relative to control, S. bongori ATCC 43975 [5]: 0.134
- cell density relative to control, V. owensii ems001 [6]: 0.002
- cell density relative to control, B. subtilis ATCC 23857 [7]: 0
- cell density relative to control, V. alginolyticus xv22 [8]: 0

Sequence: MYSVWPKSLRSVAGRGPKHRC [Cand-139, chemically synthesized candidate AMP predicted from marine biofilm bacteria]
- cell density relative to control, E. coli ATCC 11775 [1]: 0.764
- cell density relative to control, M. luteus ATCC 4698 [2]: 1
- cell density relative to control, S. aureus ATCC 12600 [3]: 0
- cell density relative to control, A. baumannii ATCC 19606 [4]: 0.959
- cell density relative to control, S. bongori ATCC 43975 [5]: 0.426
- cell density relative to control, V. owensii ems001 [6]: 0.342
- cell density relative to control, B. subtilis ATCC 23857 [7]: 0.931
- cell density relative to control, V. alginolyticus xv22 [8]: 0.013

Sequence: MCTIRTCRRSRPHHCSTHC [Cand-101, chemically synthesized candidate AMP predicted from marine biofilm bacteria]
- cell density relative to control, E. coli ATCC 11775 [1]: 0.967
- cell density relative to control, M. luteus ATCC 4698 [2]: 0.91
- cell density relative to control, S. aureus ATCC 12600 [3]: 0.01
- cell density relative to control, A. baumannii ATCC 19606 [4]: 0.879
- cell density relative to control, S. bongori ATCC 43975 [5]: 0.855
- cell density relative to control, V. owensii ems001 [6]: 1
- cell density relative to control, B. subtilis ATCC 23857 [7]: 0
- cell density relative to control, V. alginolyticus xv22 [8]: 0

Sequence: MKALRRFLSCKVCSHALN [Cand-160, chemically synthesized candidate AMP predicted from marine biofilm bacteria]
- cell density relative to control, E. coli ATCC 11775 [1]: 0.406
- cell density relative to control, M. luteus ATCC 4698 [2]: 0.638
- cell density relative to control, S. aureus ATCC 12600 [3]: 0
- cell density relative to control, A. baumannii ATCC 19606 [4]: 0.001
- cell density relative to control, S. bongori ATCC 43975 [5]: 0.072
- cell density relative to control, V. owensii ems001 [6]: 0.442
- cell density relative to control, B. subtilis ATCC 23857 [7]: 0
- cell density relative to control, V. alginolyticus xv22 [8]: 0.001

Sequence: MSPRICSVISCLMKLRC [Cand-11, chemically synthesized candidate AMP predicted from marine biofilm bacteria]
- cell density relative to control, E. coli ATCC 11775 [1]: 0.967
- cell density relative to control, M. luteus ATCC 4698 [2]: 0.931
- cell density relative to control, S. aureus ATCC 12600 [3]: 0.019
- cell density relative to control, A. baumannii ATCC 19606 [4]: 0.023
- cell density relative to control, S. bongori ATCC 43975 [5]: 0.522
- cell density relative to control, V. owensii ems001 [6]: 0.023
- cell density relative to control, B. subtilis ATCC 23857 [7]: 1
- cell density relative to control, V. alginolyticus xv22 [8]: 0.018

Sequence: MQPILKKAAPKHVGYFYKCYL [Cand-119, chemically synthesized candidate AMP predicted from marine biofilm bacteria]
- cell density relative to control, E. coli ATCC 11775 [1]: 0.618
- cell density relative to control, M. luteus ATCC 4698 [2]: 1
- cell density relative to control, S. aureus ATCC 12600 [3]: 0
- cell density relative to control, A. baumannii ATCC 19606 [4]: 0.908
- cell density relative to control, S. bongori ATCC 43975 [5]: 0.699
- cell density relative to control, V. owensii ems001 [6]: 0.046
- cell density relative to control, B. subtilis ATCC 23857 [7]: 0.838
- cell density relative to control, V. alginolyticus xv22 [8]: 0.73

Sequence: MPKRPWRACSSIG [Cand-212, chemically synthesized candidate AMP predicted from marine biofilm bacteria]
- cell density relative to control, E. coli ATCC 11775 [1]: 1
- cell density relative to control, M. luteus ATCC 4698 [2]: 1
- cell density relative to control, S. aureus ATCC 12600 [3]: 0.896
- cell density relative to control, A. baumannii ATCC 19606 [4]: 0.835
- cell density relative to control, S. bongori ATCC 43975 [5]: 0.839
- cell density relative to control, V. owensii ems001 [6]: 1
- cell density relative to control, B. subtilis ATCC 23857 [7]: 1
- cell density relative to control, V. alginolyticus xv22 [8]: 1

Sequence: MRPGMCRIGGRL [Cand-22, chemically synthesized candidate AMP predicted from marine biofilm bacteria]
- cell density relative to control, E. coli ATCC 11775 [1]: 1
- cell density relative to control, M. luteus ATCC 4698 [2]: 1
- cell density relative to control, S. aureus ATCC 12600 [3]: 0.777
- cell density relative to control, A. baumannii ATCC 19606 [4]: 1
- cell density relative to control, S. bongori ATCC 43975 [5]: 0.876
- cell density relative to control, V. owensii ems001 [6]: 1
- cell density relative to control, B. subtilis ATCC 23857 [7]: 1
- cell density relative to control, V. alginolyticus xv22 [8]: 0.862

From PMC11683478, “Bioprospecting of culturable marine biofilm bacteria for novel antimicrobial peptides” (iMeta, 2024)
